Where two headings read alike, the source gives them in different places.

The subject of one test is P. falciparum. Kind of test: Growth inhibition test of P. falciparum. Format: cell-based, Plasmodium falciparum. The note with it: for Chemotherapeutic coefficient IC50/EC50: IC50 of mouse FM3A cells / EC50 of P. falciparum, index of selective toxicity; for EC50: Plasmodium falciparum. Here is the method: P. Falciparum FCR-3 strain (ATCC30932) and P. Falciparum Honduras-i strain (ATCC30935), both of which are Plasmodium falciparum, were used as test malaria parasites for measuring antimalarial activity. A filter-sterilized RPMI1640 medium was adjusted to be pH 7.4 and added with human serum such that the serum made up 10% of the medium, and used as a test medium. The above-mentioned P. falciparum were cultured in O2at a concentration of 5%, CO2 at a concentration of 5% and N2 at a concentration of 90%, at a temperature of 36.5° C. Hematocrit value (ratio of volume of erythrocytes in erythrocyte suspension) used was adjusted to be 5%. Initial infection rate of P. falciparum at the beginning of culture was adjusted to be 0.1%. A 24-well plate was used for culture and a medium was replaced everyday, and cultures were transferred at infection rate of 4%. A thin-layer smear was constructed and subjected to Giemsa staining which had been originally developed for malarial test, or Diff-Qick staining, and followed by measurement under a microscope (oil immersion, 1000×), and then infection rate of P. falciparum was calculated according to a formula mentioned below. [formula]
Cultured erythrocytes infected with P. falciparum were gathered by centrifugation and washed with a medium containing serum, then noninfected erythrocytes were added, and a culture liquid for P. falciparum at initial infection rate of 0.3% was prepared. Hematocrit value in this case was adjusted to be 3%. The compound according to the present invention used for a test and represented by the formula (II) and […] of positive control drug (quinine, artemisinin, artesunate, mefloquine) were dissolved into sterilized water, N,N-dimethylformamide (DMF) or dimethylsulfoxide (DMSO), and a sample solution at prescribed concentration was prepared. 5 to 10 μl of the sample solution was added to each well of a 24-well plate. The sample solution was duplicated or triplicated. For control, sterilized water, DMF or DMSO was added by 10 μl per well. Next, the above-mentioned culture liquid for P. falciparum prepared to be at initial infection rate of 0.3% was added by 990 to 995 μl each, and uniformly suspended in media by pipetting gently. After cultured for 72 hours in a CO2—O2—N2 (5%, 5%, 90%) incubator, a thin-layer smear was constructed for each well of the culture plate, Giemsa staining or Diff-Qick staining was conducted, followed by measurement under a microscope (oil immersion, 1000×), and then infection rates of P. falciparum in a group supplemented with a test liquid and in controls were calculated. The growth inhibition rate was calculated according to a formula mentioned below based on the infection rate of P. falciparum as calculated above, and 50% growth inhibitory concentration (EC50) was calculated. [formula] […]
a: initial infection rate b: infection rate of a sample solution after 72 hours c: infection rate of a control after 72 hours
Antimalarial activity of a sample was evaluated based on EC50 and IC50 values of the sample of P. falciparum and mouse FM3A cells. Chemotherapeutic coefficient used as an index of selective toxicity against P falciparum was calculated by a formula mentioned below and drug efficacy was assessed. [formula]

The next test relates to mouse FM3A cells. Kind of test: Growth inhibition test of mouse FM3A cells. Format: cell-based. To be noted: for IC50: read-out: 50% growth inhibitory concentration IC50. Here is the method: An F28-7 strain, a wild-type strain of mouse breast cancer-derived FM3A cells was used. Immobilized fetal bovine serum was added to an ES medium such that the serum made up 2% of the medium, and culture was conducted in CO2 at a concentration of 5%, and at 37° C. Doubling time of the F28-7 strain of FM3A cells under this condition was about 12 hours. Cells which had been precultured and entered to logarithmic growth phase were diluted to be 5×10^4 cells/ml in the medium. The same sample solution as in the above-mentioned Example 2-2 was used. 5 to 10 μl of the sample solution was added to each well of a 24-well plate (when medium and the like were added, the final concentration became 1×10^−4˜1×10^−5 M). The sample solution was duplicated or triplicated, and wells added with 10 μl of sterilized water, DMF or DMSO were prepared at the same time as controls. Next, a prepared suspension of cultured cells was added by 990 to 995 μl each, and uniformly suspended in media by pipetting gently. After cultured for 48 hours, the number of cells in each well was counted by a cell counter (CC-108; Toa. Medical Electrics), and growth rate was calculated by a formula mentioned below and 50% growth inhibitory rate (IC50) was calculated. The cell proliferation inhibiting activity was calculated according to the number of cells in wells supplemented with the sample solution and in controls. […] on this, cell toxicity of the sample was evaluated. [formula]
A: the number of cells at the beginning
B: the number of cells in a control after 2 days
C: the number of cells 2 days after supplementation of a sample

Where [1] appears, read: Erythrocyte, P. falciparum in human erythrocytes, cultured for 72 hours, infection rate by smear staining, read-out: 50% growth inhibitory concentration EC50.
The mark [2] stands for this setting: F28-7 strain of mouse breast cancer-derived FM3A cells, cultured for 48 hours, cell count.

Take `COC(=O)C(C)C1CCC(=O)C2CCC3(C)OOC21C(O)O3` (stereo not drawn) [Compound of the present invention, 12-hidroxy-2-(1-methoxycarbonylethyl)-5-oxo-10,11,13-trioxatricyclo[7.2.0.0^1,6]tridecane]: the “Chemotherapeutic coefficient IC50/EC50” value in the test on P. falciparum is >1,000. Further, the “selective toxicity against P. falciparum compared with that against mouse FA3A cells” value in the test with P. falciparum (P. falciparum versus mouse FA3A cells) is given as “more than 1,000 times”. Moreover, the EC50 in the test on P. falciparum (setting [1]) and in the test with P. falciparum (read-out: inhibits the growth of drug-resistant P. falciparum at a mol concentration of) was 39 nM throughout. The IC50 in the test with mouse FM3A cells (setting [2]) is ≥ 24000 nM. Moreover, the growth entry in the test on mouse FM3A cells (mouse FM3A cells, printed below the IC50 cell 2.4 × 10^−5 M) was “(78% growth)”.
Consider `C[C@H]1[C@H](OC(=O)CCC(=O)O)O[C@@H]2O[C@@]3(C)CC[C@H]4[C@H](C)CC[C@@H]1[C@@]24OO3` [Artesunate, artesunate], for which the “Chemotherapeutic coefficient IC50/EC50” value in the test on P. falciparum turned out to be 180. Besides, the EC50 in the test with P. falciparum (Erythrocyte, 72 h, read-out: 50% growth inhibitory concentration EC50) was determined as 17 nM. For the same molecule, the IC50 with mouse FM3A cells (Mus musculus, FM3A, 48 h) was 3000 nM.
Take `OC(c1cc(C(F)(F)F)nc2c(C(F)(F)F)cccc12)C1CCCCN1` (stereo not drawn) [Mefloquine, mefloquine]: in the test on P. falciparum, the “Chemotherapeutic coefficient IC50/EC50” value is 90. Moreover, in the test on P. falciparum (setting [1]), the EC50 stood at 32 nM. For the same molecule, the IC50 in the test with mouse FM3A cells (setting [2]) was 2900 nM.
For `C[C@@H]1CC[C@H]2[C@@H](C)C(=O)O[C@@H]3O[C@@]4(C)CC[C@@H]1[C@]32OO4` [Artemisinin, artemisinin], the “Chemotherapeutic coefficient IC50/EC50” value in the test on P. falciparum was 1,300. In addition, in the test with P. falciparum (setting [1]), the EC50 turned out to be 7.9 nM. Moreover, the IC50 with mouse FM3A cells (setting [2]) turned out to be 10000 nM.
As to `C=C[C@H]1C[N@@]2CC[C@H]1C[C@H]2[C@H](O)c1ccnc2ccc(OC)cc12` [Quinine, quinine], the “Chemotherapeutic coefficient IC50/EC50” value in the test with P. falciparum was determined as 910. For the same molecule, the EC50 in the test on P. falciparum (setting [1]) stood at 110 nM. For the same molecule, in the test on mouse FM3A cells (setting [2]), the IC50 is 100000 nM.

Source of the values: patent US6710074B2, “Compound having antimalarial activity” (Japan Science and Technology Corporation, priority 2000, dated 2004).
